Results from patent US20230321284A1, “COMPOUND, CONTRAST AGENT, AND METHOD FOR PRODUCING COMPOUND” (ST. MARIANNA UNIVERSITY SCHOOL OF MEDICINE, priority 2020, published 2023).

Assays:
Panc-1 cells = assay: Uptake inhibition test of I-ASOR in pancreatic cancer cell line Panc-1 having no asialoglycoprotein receptor (Test Example 1); format: cell-based; conditions: compound 100 μg/mL, I-ASOR 6 μg/mL, 4° C. for 30 minutes, FIG. 2
Method: A similar experiment was conducted using a pancreatic cancer cell line Panc-1 having no asialoglycoprotein receptor. Specifically, the test is based on the following method.
I-ASOR labeled with radioactive iodine (125I) in the same manner as above was prepared as a 6 μg/mL solution in PBS and reacted with Panc-1 cells washed with ice-cold MEM (GIBCO) in 6 wells at 4° C. for 30 minutes. The cells were thoroughly washed and then lysed using 0.1 N NaOH, and radiation dose “A” taken up into the cells was measured (control sample). Similar measurement was performed by the addition of I-ASOR as well as MEG-1, MEG-2, or RYO-1 at 100 μg/mL to measure radiation dose “A” when each compound was added.
Next, the background of nonspecific binding of I-ASOR was measured as follows in order to eliminate the influence of the nonspecific binding of I-ASOR to the cells. Specifically, I-ASOR (6 μg/mL) and a 100-fold concentration (600 μg/mL) of nonlabelled ASOR were mixed and reacted with Panc-1 in the same manner as above. Then, the obtained cells were washed and lysed, and radiation dose “B” was measured. The radiation dose “B” as the background was commonly used in all of the control sample and the sample supplemented with each compound.
Next, “A-B” was calculated as to each sample to calculate I-ASOR specifically taken up into Panc-1. […]

[1] = Contrast experiment: CT imaging after tail vein injection (Test Example 3); format: in vivo; conditions: 9-week-old male ICR mouse, MEG-1 dose 52 mg/animal, images before, during, 15 minutes and 1 hour after administration
Method: A 9-week-old male ICR mouse purchased from CLEA Japan, Inc. was anesthetized by isoflurane inhalation. While the respiratory condition was monitored with DELPet μCT100 application software (DELBio, Inc.), MEG-1 was gradually administered by injection from the tail vein. The dose of MEG-1 was set to 52 mg/animal.
CT images were taken before administration, during administration, 15 minutes after administration and 1 hour after administration. Image data from the chest to the lower abdomen was reconstituted at a pixel size of […] and converted to dicom data. Further, the images were analyzed with VivoQuant software (inviCRO. LLC).
A similar test was conducted using MEG-2, MEG-4, or RYO-2 instead of MEG-1.

[2] = biological target: T1, asialoglycoprotein receptor (Homo sapiens, UniProt P07306+P07307); assay: Uptake inhibition test of I-ASOR in liver cancer cell line HepG2 (Test Example 1); format: cell-based; conditions: compound 100 μg/mL, I-ASOR 6 μg/mL, 4° C. for 30 minutes, FIG. 1
T1 construct: reacted with HepG2 cells washed with ice-cold MEM (GIBCO) in 6 wells; endogenous in cells; host or cells: HepG2
T1 sequence (P07306 1-291): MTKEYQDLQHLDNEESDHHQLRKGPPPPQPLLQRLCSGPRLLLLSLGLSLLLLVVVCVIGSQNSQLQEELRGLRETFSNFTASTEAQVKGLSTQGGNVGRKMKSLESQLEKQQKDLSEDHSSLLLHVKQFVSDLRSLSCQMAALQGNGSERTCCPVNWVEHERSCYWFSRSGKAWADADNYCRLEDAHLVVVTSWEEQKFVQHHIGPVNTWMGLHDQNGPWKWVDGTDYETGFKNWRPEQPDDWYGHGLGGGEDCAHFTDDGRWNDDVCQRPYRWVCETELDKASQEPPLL
T1 sequence (P07307 1-311): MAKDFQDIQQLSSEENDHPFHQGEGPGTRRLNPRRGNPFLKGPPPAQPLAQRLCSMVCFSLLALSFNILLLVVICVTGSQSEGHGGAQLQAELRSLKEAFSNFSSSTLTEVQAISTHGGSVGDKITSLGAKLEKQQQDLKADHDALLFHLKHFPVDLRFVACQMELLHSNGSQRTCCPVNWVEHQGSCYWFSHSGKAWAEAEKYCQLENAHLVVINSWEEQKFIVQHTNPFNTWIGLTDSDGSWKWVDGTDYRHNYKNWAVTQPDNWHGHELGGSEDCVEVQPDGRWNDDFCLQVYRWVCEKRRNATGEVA
Method: RYO-1, MEG-1, and MEG-2 prepared in Examples were subjected to an uptake inhibition test, in which the uptake is performed by an asialoglycoprotein receptor specifically expressed in hepatocytes, using a liver cancer cell line HepG2 in accordance with J Gastroenterol 1998, 33, 855-859. Specifically, the test is based on the following method.
First, orosomucoid (Sigma-Aldrich Co., LLC) was converted to an asialo compound through reaction with immobilized neuraminidase (Sigma-Aldrich Co., LLC) at 37° C. for 12 hours. This asialo-orosomucoid (ASOR) was labeled with radioactive iodine (125I) by use of the chloramine-T method to prepare I-ASOR.
The obtained I-ASOR was prepared as a 6 μg/mL solution in PBS and reacted with HepG2 cells washed with ice-cold MEM (GIBCO) in 6 wells at 4° C. for 30 minutes. The cells were thoroughly washed and then lysed using 0.1 N NaOH, and radiation dose “A” taken up into the cells was measured (control sample). […]
Next, the background of nonspecific binding of I-ASOR was measured as follows in order to eliminate the influence of the nonspecific binding of I-ASOR to the cells. […] Then, the obtained cells were washed and lysed, and radiation dose “B” was measured. […]
Next, “A-B” was calculated as to each sample to calculate I-ASOR specifically taken up into HepG2. […]

[3] = biological target: T1, asialoglycoprotein receptor; assay: Comparison of uptake activity by asialoglycoprotein receptor among compounds in HepG2 (Test Example 2); format: cell-based; conditions: compound 1.0 mM/mL, I-ASOR 0.4 μg/mL, 37° C. for 30 minutes, FIG. 3
Method: Uptake activity by an asialoglycoprotein receptor was compared among MEG-2, MEG-4, RYO-1, and RYO-2 by use of the same method as in Test Example 1.
A PBS solution containing 0.4 μg/mL I-ASOR obtained in the same manner as in Test Example 1 and 1.0 mM/mL MEG-2, MEG-4, RYO-1, or RYO-2 was prepared and reacted with HepG2 washed with ice-cold MEM (GIBCO) in 6 wells at 37° C. for 30 minutes. The cells were thoroughly washed and then lysed using 0.1 N NaOH, and radiation dose “A” taken up into HepG2 was measured.
An experiment was conducted as a positive control in which a PBS solution containing 0.4 μg/mL I-ASOR and 1000 μg/mL nonlabelled ASOR was prepared and reacted with HepG2 washed with ice-cold MEM (GIBCO) in 6 wells at 4° C. for 30 minutes.
Next, the background of nonspecific binding of I-ASOR was measured as follows in order to eliminate the influence of the nonspecific binding of I-ASOR to the cells. Specifically, I-ASOR (0.4 μg/mL) and a 100-fold concentration (40 μg/mL) of nonlabelled ASOR were mixed and reacted with HepG2 in the same manner as above. Then, the obtained cells were washed and lysed, and radiation dose “B” was measured. The radiation dose “B” as the background was commonly used in all of the control sample, the positive control sample, and the sample supplemented with each compound.
Next, “A-B” was calculated as to each sample to calculate I-ASOR specifically taken up into HepG2. The experiment was conducted in triplicate to calculate standard deviation.

inhibitory ability on ligand uptake compared between compounds [3]	Compound	inhibition of the uptake of the ligand (I-ASOR) in Panc-1 (Panc-1 cells)	CT images: appearance of high-absorption liquid (excretion sites) [1]	inhibition of the uptake of the ligand (I-ASOR) in HepG2 [2]	inhibition of the uptake of the ligand (I-ASOR) in HepG2 [3]
–	CC(=O)Nc1c(I)c(NC(C)=O)c(I)c(C(=O)NCCO[C@@H]2OC(CO)[C@H](O)C(O)[C@@H]2O)c1I (stereo partly drawn) [MEG-1]	none of RYO-1, MEG-1, and MEG-2 inhibited the uptake of the ligand	a liquid that exhibited high absorption, which was not observed before administration, was confirmed to appear over time in the intestine and in the urinary bladder	competitively inhibit the uptake of the ligand	–
higher in MEG-4 than in MEG-2	O=C(NCCOCCO[C@@H]1OC(CO)[C@H](O)[C@H](O)C1O)c1c(I)c(C(=O)NCCOCCO[C@@H]2OC(CO)[C@H](O)[C@H](O)C2O)c(I)c(C(=O)NCCOCCO[C@@H]2OC(CO)[C@H](O)[C@H](O)C2O)c1I (stereo partly drawn) [MEG-4]	–	a liquid that exhibited high absorption, which was not observed before administration, was confirmed to appear over time in the intestine and in the urinary bladder	–	competitively inhibited the uptake of the ligand in HepG2
–	CC(=O)Nc1c(I)c(NC(C)=O)c(I)c(C(=O)NCCNC(=O)[C@H](O)[C@@H](O)C(O[C@@H]2OC(CO)[C@H](O)[C@H](O)C2O)[C@@H](O)CO)c1I (stereo partly drawn) [RYO-1]	none of RYO-1, MEG-1, and MEG-2 inhibited the uptake of the ligand	–	competitively inhibit the uptake of the ligand	competitively inhibited the uptake of the ligand in HepG2
higher in RYO-2 than in RYO-1	O=C(NCCNC(=O)[C@H](O)[C@@H](O)[C@H](O[C@@H]1O[C@H](CO)[C@H](O)[C@H](O)[C@H]1O)[C@H](O)CO)c1c(I)c(C(=O)NCCNC(=O)[C@H](O)[C@@H](O)[C@H](O[C@@H]2O[C@H](CO)[C@H](O)[C@H](O)[C@H]2O)[C@H](O)CO)c(I)c(C(=O)NCCNC(=O)[C@H](O)[C@@H](O)C(O[C@@H]2O[C@H](CO)[C@H](O)[C@H](O)[C@H]2O)[C@H](O)CO)c1I (stereo partly drawn) [RYO-2]	–	a liquid that exhibited high absorption, which was not observed before administration, was confirmed to appear over time in the intestine and in the urinary bladder	–	competitively inhibited the uptake of the ligand in HepG2
